Molecular target: T1, β3GnT-7 (Homo sapiens, UniProt Q8NFL0)
T1 construct: made in house; host or cells: Sf21 insect cells (baculovirus, Bac-to-Bac); purified from culture supernatant on anti-M1 (anti-FLAG) resin
T1 sequence (Q8NFL0 75-401): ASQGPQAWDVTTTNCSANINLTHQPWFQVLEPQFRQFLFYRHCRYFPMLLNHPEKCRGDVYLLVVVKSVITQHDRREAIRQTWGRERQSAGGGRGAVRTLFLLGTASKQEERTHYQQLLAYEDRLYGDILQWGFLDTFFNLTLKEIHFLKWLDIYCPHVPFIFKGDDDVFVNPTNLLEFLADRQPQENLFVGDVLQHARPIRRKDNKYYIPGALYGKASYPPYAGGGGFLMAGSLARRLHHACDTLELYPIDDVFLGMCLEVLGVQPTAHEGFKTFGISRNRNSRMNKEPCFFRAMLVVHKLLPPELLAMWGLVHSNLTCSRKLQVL
Test: Search of acceptor substrate of β3Gn-T7 (UDP-[14C]GlcNAc transfer, TLC radioactivity)
Assay type: biochemical
Details: acceptor substrate 10 nmol, donor UDP-GlcNAc 480 μM, 37° C. for 5 hours, pH7.2
Excerpt: Using the following reaction systems, the acceptor substrate was searched. As the “acceptor substrate” in the reaction solution described below, each of the following was used and whether each of them functioned as the acceptor or not was investigated: pNp-α-Glc, pNp-β-Glc, pNp-α-GlcNAc, pNp-β-GlcNAc, pNp-α-Gal, pNp-β-Gal, pNp-α-GalNAc, Bz-α-GalNAc, pNp-α-Xyl, pNp-β-Xyl, pNp-α-Fuc, Bz-α-Man, Bz-α-ManNAc, LacCer, GalCer typel and Bz-β-lactoside (all of them are from SIGMA) and Galβ1-4GlcNAc-α-pNp (TRONTO RESEARCH CHEMICAL).
The reaction solution (the numbers in the parentheses indicate the final concentrations) contained acceptor substrate (10 nmol), sodium cacodylate buffer (pH7.2) (50 mM), Triton CF-54 (trademark) (0.4%), MnCl2 (10 mM), UDP-GlcNAC (480 μM) and UDP-[^14C]GlcNAC (175 nCi) and CDP-colline (5 mM), to which 10 μl of the β3Gn-T7 enzyme solution and H2O were added to attain a final volume of 25 μl.
The reaction mixture was allowed to react at 37° C. for 5 hours, and after completion of the reaction, 200 μl of 0.1 M KCl was added, followed by light centrifugation and collection of the supernatant. […] After developing the mixture up to 5 mm from the top end of the TLC plate, the plate was dried and the intensity of the radioactivity taken in the product was measured using Bio Image Analyzer FLA3000 (FUJI PHOTO FILM).

| whether it functioned as the acceptor (transfer of GlcNAc by β3GnT-7) | Compound |
| --- | --- |
| activity to transfer GlcNAc | OC[C@H]1O[C@@H](O[C@H]2[C@H](O)[C@@H](O)[C@H](OCc3ccccc3)O[C@@H]2CO)[C@H](O)[C@@H](O)[C@H]1O [Bz-β-lactoside] |
| activity to transfer GlcNAc | CC(=O)N[C@H]1[C@@H](Oc2ccc([N+](=O)[O-])cc2)O[C@H](CO)[C@@H](O[C@@H]2O[C@H](CO)[C@H](O)[C@H](O)[C@H]2O)[C@@H]1O [Galβ1-4Glc(NAc)-α-pNp, Galβ1-4GlcNAc-α-pNp] |
